Results published in US20100105723A1, “5-PHENYL-6-PYRIDIN-4-YL-1,3-DIHYDRO-2H-IMIDAZO[4,5-b]PYRIDIN-2-ONE DERIVATIVES USEFUL AS A2B ADENOSINE RECEPTOR ANTAGONISTS” (priority 2006, published 2010).

How the values were obtained:
human A1 receptor = target: T1, human A1 receptor (Homo sapiens, UniProt P30542); experiment: A1 radioligand filtration binding assay (3H-DPCPX); details: membranes from CHO cells transfected with human A1 receptor; mean of at least two independent determinations; read-out: Ki hA1
T1 construct: host or cells: CHO
T1 sequence (P30542 1-326): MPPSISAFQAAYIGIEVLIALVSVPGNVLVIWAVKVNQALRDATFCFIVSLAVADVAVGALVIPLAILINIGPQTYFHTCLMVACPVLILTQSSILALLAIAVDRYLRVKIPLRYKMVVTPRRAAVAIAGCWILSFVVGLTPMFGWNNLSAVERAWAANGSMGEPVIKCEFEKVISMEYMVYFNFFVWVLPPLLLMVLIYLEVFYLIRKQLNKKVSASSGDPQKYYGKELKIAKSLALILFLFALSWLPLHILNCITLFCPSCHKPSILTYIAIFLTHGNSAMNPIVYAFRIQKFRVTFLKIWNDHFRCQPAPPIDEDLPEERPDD
Protocol: For A1 receptors a filtration binding assay was performed with 2 nM ^3H-DPCPX, […] unlabelled R-PIA, membranes from CHO cells transfected with human A1 receptor (Euroscreen ES-010-C) and incubated 90 min. at room temperature in Hepes 20 mM pH 7.4, NaCl 100 mM, MgCl2 10 mM and 2 U/ml adenosin deaminase.

human A2B receptor = target: T2, human A2B receptor (Homo sapiens, UniProt P29275); experiment: A2B radioligand filtration binding assay ([3H]-DPCPX competition); details: membranes from HEK293 cells expressing human A2B receptor; mean of at least two independent determinations; read-out: Ki hA2B
T2 construct: host or cells: HEK293
T2 sequence (P29275 1-332): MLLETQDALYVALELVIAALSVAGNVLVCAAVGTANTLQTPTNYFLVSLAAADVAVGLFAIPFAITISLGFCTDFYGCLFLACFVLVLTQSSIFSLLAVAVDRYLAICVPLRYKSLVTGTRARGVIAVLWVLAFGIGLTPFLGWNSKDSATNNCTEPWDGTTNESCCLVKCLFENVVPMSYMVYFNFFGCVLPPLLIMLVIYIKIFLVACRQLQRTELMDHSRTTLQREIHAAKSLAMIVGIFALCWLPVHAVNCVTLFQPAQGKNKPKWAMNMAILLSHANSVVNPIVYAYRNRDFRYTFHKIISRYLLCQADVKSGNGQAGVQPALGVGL
Protocol: For A2B, competition assays were carried out in filtration binding assay, incubating in polypropylene 96 well-plates (n^o 267245, NUNC) containing 2 μL of either 1% DMSO solution, test compound or 100 μM 5′NECA (SIGMA E-2387) for non-specific binding, 100 μg of A2B-membranes prepared from HEK293 cells stably expressing the human A2B receptor (Euroscreen ES-013-C) and 35 nM [^3H]-DPCPX (TRK1064, 128 Ci/mmol, Amersham), in a total volume of 200 μl of buffer A+2 Ul/ml adenosine deaminase, for 60 minutes at room temperature.

human A2A receptor = target: T3, human A2A receptor (Homo sapiens, UniProt P29274); experiment: A2A radioligand SPA binding assay (3H-ZM241385); details: for Ki: membranes from HeLa cells transfected with human A2A receptor, mean of at least two independent determinations, read-out: Ki hA2A
T3 construct: expressed in transfected cells; host or cells: HeLa
T3 sequence (P29274 whole entry): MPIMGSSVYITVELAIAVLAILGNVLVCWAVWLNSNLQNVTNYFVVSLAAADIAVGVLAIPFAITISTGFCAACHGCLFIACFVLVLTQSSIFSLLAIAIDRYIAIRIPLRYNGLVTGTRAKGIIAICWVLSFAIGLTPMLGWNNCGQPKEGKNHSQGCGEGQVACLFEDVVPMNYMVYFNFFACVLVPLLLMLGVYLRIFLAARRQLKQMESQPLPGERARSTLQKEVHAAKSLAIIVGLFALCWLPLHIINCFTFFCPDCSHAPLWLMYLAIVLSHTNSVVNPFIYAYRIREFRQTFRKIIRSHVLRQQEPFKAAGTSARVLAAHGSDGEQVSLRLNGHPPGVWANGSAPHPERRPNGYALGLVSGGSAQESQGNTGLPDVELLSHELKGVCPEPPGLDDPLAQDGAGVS
Protocol: For A2A receptors binding technology was SPA (Amhersham) with 3,3 nM ^3H-ZM241385, […] unlabelled NECA, membranes from HeLa cells transfected with human A2A receptor, incubated 1 h. at room temperature with 1 mg YSi-WGA beads in TrisHCl 50 mM pH 7.4, EDTA 1 mM, MgCl2 10 mM, 2 U/ml adenosin deaminase.

human A3 receptor = target: T4, human A3 receptor (Homo sapiens, UniProt P0DMS8); experiment: A3 radioligand filtration binding assay (3H-NECA); details: for inhibition at 1 µM: at indicated concentration (1000 nM), read-out: % inhibition of radioligand binding at indicated concentration, hA3; for Ki: membranes from HeLa cells transfected with human A3 receptor, read-out: Ki hA3
T4 construct: expressed in transfected cells; host or cells: HeLa
T4 sequence (P0DMS8 1-318): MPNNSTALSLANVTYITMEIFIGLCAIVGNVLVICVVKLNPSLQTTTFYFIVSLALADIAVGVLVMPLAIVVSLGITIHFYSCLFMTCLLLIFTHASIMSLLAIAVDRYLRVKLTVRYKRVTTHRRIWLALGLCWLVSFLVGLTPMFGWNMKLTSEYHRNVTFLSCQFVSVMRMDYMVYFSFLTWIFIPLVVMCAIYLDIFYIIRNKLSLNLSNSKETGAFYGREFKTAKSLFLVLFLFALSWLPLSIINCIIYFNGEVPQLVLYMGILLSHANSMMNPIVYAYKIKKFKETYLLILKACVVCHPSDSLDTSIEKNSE
Protocol: For A3 receptors, in filtration binding assay, 30 nM ^3H-NECA, […] unlabelled R-PIA, […] membranes from HeLa cells transfected with human A3 receptor, incubated 3 h. at room temperature in TrisHCl 50 mM pH 7.4, EDTA 1 mM, MgCl2 5 mM, 2 U/ml adenosin deaminase.

| SMILES | Ki (human A1 receptor) [nM] | Ki (human A2B receptor) [nM] | Ki (human A2A receptor) [nM] | inhibition at 1 µM (human A3 receptor) [%] | Ki (human A3 receptor) [nM] | inhibition at 2.5 µM (human A2A receptor; at indicated concentration (2500 nM), read-out: % inhibition of radioligand binding at indicated concentration, hA2A) [%] |
| --- | --- | --- | --- | --- | --- | --- |
| O=c1[nH]c2cc(-c3ccncc3F)c(-c3ccccc3F)nc2[nH]1 [Example 1, 5-(2-Fluorophenyl)-6-(3-fluoropyridin-4-yl)-1,3-dihydro-2H-imidazo[4,5-b]pyridin-2-one] | 35 | 0.9 | 721 | 19 | > 1000 |  |
| O=c1[nH]c2cc(-c3ccncc3Cl)c(-c3ccccc3F)nc2[nH]1 [Example 2, 6-(3-Chloropyridin-4-yl)-5-(2-fluorophenyl)-1,3-dihydro-2H-imidazo[4,5-b]pyridin-2-one] | 76 | 1.8 | 449 | 22 | > 1000 |  |
| O=c1[nH]c2cc(-c3c(F)cncc3F)c(-c3ccccc3F)nc2[nH]1 [Example 3, 6-(3,5-Difluoropyridin-4-yl)-5-(2-fluorophenyl)-1,3-dihydro-2H-imidazo[4,5-b]pyridin-2-one] | 632 | 1.1 | > 2500 | 18 | > 1000 | 6 |
